# Data reported in patent US20240287136A1, “PHARMACEUTICAL COMPOSITION AND THE USE THEREOF IN THE TREATMENT OF AUTOIMMUNE DISEASES” (Singapore Health Services Pte. Ltd., priority 2016, published 2024).
# Key:
# [1] = test system: CD4+ sorted cells; test: PD-1 / PDL1 expression on CD4+ T cells co-cultured with HCQ-treated mDC; format: cell-based, human
# Description: (§1) FIG. 6. […] CD4+ sorted cells were co-cultured with the mDC-treated groups for an additional 24 hours. The expression of PD-1 (MFI: 187 vs 212, T(x)=26.4, p<0.01) and intracellular PD-1 (MFI: 46 vs 222, T(x) 161, p<0.01) was increased in T cells when co-cultured with HCQ-treated mDC. h.
# (§2) MFI=Mean Fluorescence Index. […] MFI=Mean Fluorescence Index Sorted CD4+ T cells were then co-cultured with mDCs for an additional 24 hours.
# Monocyte-derived dendritic cells (DCs) were isolated from healthy controls and activated with lipopolysaccharide (LPS). […] HCQ-treated and untreated mature DCs were then co-cultured with CD4+ T cells to assess the potential of these DCs in activating the T cells.
# [2] = test system: Monocyte-derived, LPS-induced dendritic cells (mDC); test: Marker expression on monocyte-derived, LPS-induced dendritic cells treated in vitro with HCQ; format: cell-based, human
# Description: FIG. 6. […] CD4+ sorted cells were co-cultured with the mDC-treated groups for an additional 24 hours.
# as §2
# [3] = test system: patients with early rheumatoid arthritis; test: Phase II trial of mucosal tolerization to SEQ ID NO. 1: clinical outcome; format: in vivo, human
# Description: The model employed here is based on the hypothesis that immune tolerization to a T-cell epitope, such as SEQ ID NO. 1 that may be a contributor of inflammation in patients with rheumatoid arthritis, may lead to detectable clinical improvement. A total of 96 patients with early rheumatoid arthritis, who were not allowed on Methotrexate or biologics, were tested with mucosal tolerization to SEQ ID NO. 1. Patients are defined as “responders” if they meet the response criteria at any time during the study. […] SEQ ID NO. […]
# [4] = test system: T cells cocultured with mDC; test: Gene expression of regulatory molecules in T cells co-cultured with mDC+HCQ; format: cell-based, human
# Description: as §1
# Data are expressed as 2(−dCT)×100 of GAPDH.
# as §2
compound,measurement,setting,value
"CCN(CCO)CCCC(C)Nc1ccnc2cc(Cl)ccc12 (stereo not shown) [HCQ, hydroxychloroquine]",expression of intracellular PD-1 in T cells,"[1]; CD4+ cells co-cultured 24 hours with HCQ-treated mDC, control 46",222 MFI
same,expression of PD-1 in T cells,"[1]; CD4+ cells co-cultured 24 hours with HCQ-treated mDC, control 187",212 MFI
same,expression of PDL1 on CD4+ T cells,[1]; cultured in the presence of HCQ-treated DCs (FIG. 12B),expressed more
same,expression of HLA-DR on mDC,[2]; control 100,20.8 MFI
same,expression of CD200 on mDC,[2]; control 264,409 MFI
same,expression of IL-10 in mDC,[2]; control 453,1045 MFI
same,expression of CD86 on mDC,[2]; control 37983,34170 MFI
same,effect on the therapeutic activity of SEQ ID NO: 1,[3]; HCQ use preceding SEQ ID NO: 1 administration,synergistic effect
same,clinical control,"[3]; post hoc evaluation of Phase II trial, preceding use of HCQ in combination with SEQ ID NO. 1 treatment",favored clinical control
same,Gene expression of CTLA-4 in T cells,[4]; without HCQ 1.74,15.06 2(−dCT)×100 of GAPDH
same,Gene expression of FoxP3 in T cells,[4]; without HCQ 3.06,12.27 2(−dCT)×100 of GAPDH
same,Gene expression of IL-10 in T cells,[4]; without HCQ 3.71,7.57 2(−dCT)×100 of GAPDH
same,Gene expression of TGF β in T cells,[4]; without HCQ 15.00,23.85 2(−dCT)×100 of GAPDH
